Assay [1] has as its system Plasmodium falciparum. Put plainly: Ratio of IC50 for Plasmodium falciparum […] dehydrogenase H185A mutant to IC50 for Plasmodium falciparum wild type […] dehydrogenase.
Assay [2] relates to Plasmodium falciparum. As to the kind of experiment: Ratio of IC50 for Plasmodium falciparum […] dehydrogenase C276Y mutant to IC50 for Plasmodium falciparum wild type […] dehydrogenase.
Assay [3] deals with Plasmodium falciparum. Put plainly: Ratio of IC50 for Plasmodium falciparum […] dehydrogenase C276F mutant to IC50 for Plasmodium falciparum wild type […] dehydrogenase.
The subject of assay [4] is Plasmodium falciparum. As to the kind of experiment: Ratio of IC50 for Plasmodium falciparum […] dehydrogenase C276A mutant to IC50 for Plasmodium falciparum wild type […] dehydrogenase.
In assay [5] the test system is Plasmodium falciparum. Put plainly: Ratio of IC50 for Plasmodium falciparum […] dehydrogenase F188A mutant to IC50 for Plasmodium falciparum wild type […] dehydrogenase.
For assay [6], the target named is Dihydroorotate dehydrogenase (quinone), mitochondrial (Homo sapiens, UniProt Q02127). As to the kind of experiment: Inhibition of human […] dehydrogenase expressed in Escherichia coli BL21(DE3) using […] as substrate by DCIP-based colorimetric analysis.
Dihydroorotate dehydrogenase (quinone), mitochondrial, sequence (Q02127 whole entry): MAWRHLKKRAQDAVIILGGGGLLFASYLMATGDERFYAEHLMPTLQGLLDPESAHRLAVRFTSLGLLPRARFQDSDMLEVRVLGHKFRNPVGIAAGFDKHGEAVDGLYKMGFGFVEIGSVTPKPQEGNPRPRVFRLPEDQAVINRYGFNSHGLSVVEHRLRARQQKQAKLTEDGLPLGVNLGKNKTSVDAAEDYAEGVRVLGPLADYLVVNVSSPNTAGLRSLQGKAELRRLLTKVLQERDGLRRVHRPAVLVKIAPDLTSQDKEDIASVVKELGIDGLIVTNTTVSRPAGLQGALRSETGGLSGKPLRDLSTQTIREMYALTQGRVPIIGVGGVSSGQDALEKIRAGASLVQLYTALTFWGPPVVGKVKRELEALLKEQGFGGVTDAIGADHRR
For assay [7], the target named is T1, Dihydroorotate dehydrogenase (Plasmodium falciparum, UniProt Q54A96).
T1 sequence (Q54A96 whole entry): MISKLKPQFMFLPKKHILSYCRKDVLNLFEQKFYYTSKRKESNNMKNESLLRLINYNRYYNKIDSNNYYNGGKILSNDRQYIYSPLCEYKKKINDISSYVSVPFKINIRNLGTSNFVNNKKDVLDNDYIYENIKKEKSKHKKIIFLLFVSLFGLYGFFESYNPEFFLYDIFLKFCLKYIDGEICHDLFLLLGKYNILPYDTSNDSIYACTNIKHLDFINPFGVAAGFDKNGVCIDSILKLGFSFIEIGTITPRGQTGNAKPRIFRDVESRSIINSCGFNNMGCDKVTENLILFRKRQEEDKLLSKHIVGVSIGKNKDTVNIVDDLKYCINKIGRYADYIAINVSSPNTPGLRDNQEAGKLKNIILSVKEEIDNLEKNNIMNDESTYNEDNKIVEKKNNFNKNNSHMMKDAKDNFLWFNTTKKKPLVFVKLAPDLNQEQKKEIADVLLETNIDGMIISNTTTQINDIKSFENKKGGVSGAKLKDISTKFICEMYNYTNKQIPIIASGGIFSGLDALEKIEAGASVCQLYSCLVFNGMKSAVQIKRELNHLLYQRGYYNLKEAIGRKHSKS
Put plainly: Inhibition of Plasmodium falciparum […] dehydrogenase expressed in Escherichia coli BL21(DE3) using […] as substrate by DCIP-based colorimetric analysis.

The species named for assay [8] is Homo sapiens. As to the kind of experiment: Inhibition of human […] dehydrogenase Y147A mutant expressed in Escherichia coli BL21(DE3) using […] as substrate at 100 uM by DCIP-based colorimetric analysis.
The test system of assay [9] is T2, Dihydroorotate dehydrogenase (quinone), mitochondrial (Plasmodium falciparum (isolate 3D7)), Q08210 [H185A].
T2 sequence (whole entry): T1 sequence (Q54A96 whole entry) with H185A
Put plainly: Inhibition of Plasmodium falciparum […] dehydrogenase H185A mutant expressed in Escherichia coli BL21(DE3) using […] as substrate at 100 uM by DCIP-based colorimetric analysis.

For assay [10], the species on record is Homo sapiens. Put plainly: Inhibition of human […] dehydrogenase Y147C mutant expressed in Escherichia coli BL21(DE3) using […] as substrate at 100 uM by DCIP-based colorimetric analysis.
Assay [11] is filed under the species Homo sapiens. As to the kind of experiment: Inhibition of human […] dehydrogenase H56A mutant expressed in Escherichia coli BL21(DE3) using […] as substrate at 100 uM by DCIP-based colorimetric analysis.
Assay [12] relates to T3, Dihydroorotate dehydrogenase (quinone), mitochondrial (Plasmodium falciparum (isolate 3D7)), Q08210 [C276F].
T3 sequence (whole entry): T1 sequence (Q54A96 whole entry) with C276F
As to the kind of experiment: Inhibition of Plasmodium falciparum […] dehydrogenase C276F mutant expressed in Escherichia coli BL21(DE3) using […] as substrate at 100 uM by DCIP-based colorimetric analysis.

The test system of assay [13] is T4, Dihydroorotate dehydrogenase (quinone), mitochondrial (Plasmodium falciparum (isolate 3D7)), Q08210 [F188Y].
T4 sequence (whole entry): T1 sequence (Q54A96 whole entry) with F188Y
As to the kind of experiment: Inhibition of Plasmodium falciparum […] dehydrogenase F188Y mutant expressed in Escherichia coli BL21(DE3) using […] as substrate at 100 uM by DCIP-based colorimetric analysis.

The species named for assay [14] is Homo sapiens. Put plainly: Inhibition of human […] dehydrogenase Y147F mutant expressed in Escherichia coli BL21(DE3) using […] as substrate at 100 uM by DCIP-based colorimetric analysis.
Assay [15] has as its system T5, Dihydroorotate dehydrogenase (quinone), mitochondrial (Plasmodium falciparum (isolate 3D7)), Q08210 [C276Y].
T5 sequence (whole entry): T1 sequence (Q54A96 whole entry) with C276Y
Put plainly: Inhibition of Plasmodium falciparum […] dehydrogenase C276Y mutant expressed in Escherichia coli BL21(DE3) using […] as substrate at 100 uM by DCIP-based colorimetric analysis.

For assay [16], the species on record is Homo sapiens. Put plainly: Ratio of IC50 for human dihydrofolate dehydrogenase Y147F mutant to IC50 for human wild type dihydrofolate dehydrogenase.
The species entered for assay [17] is Homo sapiens. Put plainly: Ratio of IC50 for human dihydrofolate dehydrogenase Y147C mutant to IC50 for human wild type dihydrofolate dehydrogenase.
Assay [18] is filed under the species Homo sapiens. Put plainly: Ratio of IC50 for human dihydrofolate dehydrogenase Y147A mutant to IC50 for human wild type dihydrofolate dehydrogenase.
The species entered for assay [19] is Homo sapiens. Put plainly: Ratio of IC50 for human […] dehydrogenase H56A mutant to IC50 for human wild type […] dehydrogenase.

Molecules are shown by their SMILES. Substitutions are numbered along the chain they refer to.

In the case of `Cc1cc(Nc2ccc3ccccc3c2)n2ncnc2n1`, the Ratio IC50 was 19 in the assay on Plasmodium falciparum [1]; 3.5 in the assay with Plasmodium falciparum [2]; 2.3 in the assay on Plasmodium falciparum [3]; 0.69 in the assay with Plasmodium falciparum [4]; 29 in the assay with Plasmodium falciparum [5].

On to `Cc1cc(O)n2nc(SCc3cccc(Cl)c3)nc2n1`, for which the IC50 in assay [6] came out at 29 µM; in assay [7], 5.6 µM.

As to `Cc1cc(O)n2nc(SCc3ccccc3)nc2n1`, the IC50 in assay [6] was found to be 89 µM; in assay [7] it was 62 µM.

On to `Cc1cc(=O)n2nc(SCc3ccc(Cl)cc3)nc2[nH]1`, for which the inhibition (in the assay listed under Homo sapiens [8]; in [9]; in the assay filed under Homo sapiens [10]; in the assay listed under Homo sapiens [11]; in assay [12]; in assay [13]) was < 50% in each case. Also, the inhibition (in the assay listed under Homo sapiens [14]; in assay [15]) was < 50% each time. Moreover, the IC50 was found to be 39 µM in assay [6] and 1 µM in [7]. Besides, the Ratio IC50 with Plasmodium falciparum [4] was determined as 1.5.

For the compound `Cc1cc(N)n2nc(SCc3ccccc3)nc2n1`, the IC50 in assay [6] and in assay [7] was > 100 µM throughout.

With `Cc1cc(O)n2nc(SCc3ccc(Br)cc3)nc2n1`, the figures for the IC50 in assay [6] and in assay [7] were 32 µM and 33 µM, respectively.

As to `Cc1cc(O)n2nc(SCc3ccc(Cl)c(Cl)c3)nc2n1`, the inhibition (in the assay filed under Homo sapiens [8]; in assay [9]; in the assay filed under Homo sapiens [10]; in the assay filed under Homo sapiens [11]; in assay [12]; in [13]) was < 50% throughout. Further, the inhibition in assay [15] is < 50%. Moreover, the IC50 in [6] worked out at 6.5 µM; in assay [7], 1.9 µM. Further, the Ratio IC50 stood at 2 in the assay on Plasmodium falciparum [4] and 8.8 in the assay filed under Homo sapiens [16].

Take `COc1ccc(CSc2nc3nc(C)cc(O)n3n2)cc1`: the results for the IC50 in assay [6] and in [7] were 63 µM and 21 µM, respectively.

In the case of `Cc1cc(C)cc(CSc2nc3nc(C)cc(O)n3n2)c1`, the IC50 is 30 µM in assay [6] and 19 µM in assay [7].

For `CCc1cc(O)n2nc(SCc3ccc(Cl)cc3)nc2n1`, the IC50 in assay [6] is 13 µM; in assay [7], > 100 µM.

Regarding `Cc1cc(O)n2nc(SCc3cc(Cl)ccc3Cl)nc2n1`, the Ratio IC50 in the assay filed under Homo sapiens [17] was 14; in the assay filed under Homo sapiens [18], 20; in the assay with Plasmodium falciparum [4], 3.7; in the assay filed under Homo sapiens [16], 1.1; in the assay filed under Homo sapiens [19] it was 7.1. Further, the IC50 in assay [6] was 0.051 µM; in assay [7] it was 11 µM. The inhibition in assay [9], in [12], in [13] and in assay [15] was < 50% each time.

Take `Cc1cc(NCc2ccccc2)n2nc(SCc3ccccc3)nc2n1`: the IC50 in assay [6] and in assay [7] was > 100 µM each time.

On to `Cc1ccc(CSc2nc3[nH]c(C)cc(=O)n3n2)cc1`, for which the half-inhibitory concentration (IC50) in assay [6] worked out at 46 µM; in assay [7] it was 26 µM.

Turning to `Cc1cc(N)n2nc(SCc3ccc(Cl)c(Cl)c3)nc2n1`, the IC50 in assay [6] and in [7] was > 100 µM throughout.

As to `Cc1cc(O)n2nc(SCc3ccccc3Cl)nc2n1`, the IC50 in assay [6] was determined as 12 µM; in [7] it was 28 µM.

Turning to `Cc1cc(O)n2nc(SCc3ccccc3[N+](=O)[O-])nc2n1`, the IC50 in [6] is 9.5 µM; in assay [7], > 100 µM.

As to `Cc1cc(O)n2nc(SCc3c(Cl)cccc3Cl)nc2n1`, the IC50 in [6] was found to be 18 µM; in assay [7], 3.5 µM.

The term IC50 denotes the concentration needed to halve the response being measured. One may read the inhibition as the relative decrease from the control value, in per cent.
